For six molecules, EC50 and Emax results are on record in US20260176320A1, “MODULATORS OF G-PROTEIN COUPLED RECEPTORS” (priority 2018, published 2026).

In one assay the target is GLP-1R (Homo sapiens, UniProt P43220). Description: HitHunter cAMP assay (GLP-1R). In kind it is cell-based. The settings on record: cAMP; for Emax: read-out: (Emax) GLP-1R. Put shortly:
(§1)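 Luminescent readout of cAMP by enzyme-fragment immunocompetition gave agonist concentration-response data. Cells (10,000/well) sat in HBSS buffer containing IBMX 625 μM, HEPES 10 mM and BSA 0.2%, exposed to agonist for 30 min at room temperature.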

The target of another assay is T1, GIP-R (Homo sapiens, UniProt P48546).
T1 sequence (P48546 22-466): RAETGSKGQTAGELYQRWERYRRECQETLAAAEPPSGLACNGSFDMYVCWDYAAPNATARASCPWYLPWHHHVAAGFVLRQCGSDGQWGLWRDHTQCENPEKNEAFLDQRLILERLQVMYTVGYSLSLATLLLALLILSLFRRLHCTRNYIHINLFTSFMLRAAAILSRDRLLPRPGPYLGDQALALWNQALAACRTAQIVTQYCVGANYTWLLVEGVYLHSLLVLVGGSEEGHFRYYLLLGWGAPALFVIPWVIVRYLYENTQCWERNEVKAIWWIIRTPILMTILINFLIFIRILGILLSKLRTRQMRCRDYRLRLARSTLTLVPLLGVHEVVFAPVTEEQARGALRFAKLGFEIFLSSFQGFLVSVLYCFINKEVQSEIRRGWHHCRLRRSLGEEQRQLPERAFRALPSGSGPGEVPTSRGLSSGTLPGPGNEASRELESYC
Description: HitHunter cAMP assay (GIP-R). The settings on record: cAMP; for Emax: read-out: (Emax) GIP-R. In kind it is cell-based. The procedure, abridged: as §1

Where [1] appears, read: Table 3, read-out: EC50 GLP-1R/nM.
[2] abbreviates: Table 3A, read-out: EC50 GLP-1R/nM.
Where [3] appears, read: Table 3, read-out: EC50 GIP-R/nM.
The mark [4] stands for this setting: Table 3A, read-out: EC50 GIP-R/nM.

Like-named read-outs stand apart in the source and are kept apart here. Square brackets hold non-standard residues; d marks the D form. Peptide text beside a SMILES is read from it. * marks the point of attachment. X1 = O=C(CSCC(=O)*)NCCN1C(=O)c2ccccc2C1=O; Aib = CC(C)(N)C(=O)O Some results are limits rather than exact numbers.

GLP-1R, sequence (P43220 24-463): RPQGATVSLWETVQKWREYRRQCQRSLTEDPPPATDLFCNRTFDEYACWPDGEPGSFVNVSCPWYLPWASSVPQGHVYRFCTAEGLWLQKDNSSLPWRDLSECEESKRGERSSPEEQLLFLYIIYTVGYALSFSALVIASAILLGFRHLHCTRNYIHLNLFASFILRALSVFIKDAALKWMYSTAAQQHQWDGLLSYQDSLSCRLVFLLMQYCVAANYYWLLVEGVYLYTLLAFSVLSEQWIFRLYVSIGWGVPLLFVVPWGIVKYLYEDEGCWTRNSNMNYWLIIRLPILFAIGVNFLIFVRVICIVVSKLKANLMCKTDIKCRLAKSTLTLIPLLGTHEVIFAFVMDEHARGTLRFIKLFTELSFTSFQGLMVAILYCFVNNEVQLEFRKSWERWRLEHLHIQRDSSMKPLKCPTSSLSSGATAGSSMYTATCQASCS

Turning to `CC[C@H](C)[C@H](NC(=O)[C@H](CO)NC(=O)[C@H](Cc1ccc(O)cc1)NC(=O)[C@H](CC(=O)O)NC(=O)[C@H](CO)NC(=O)[C@@H](NC(=O)[C@H](Cc1ccccc1)NC(=O)[C@@H](NC(=O)CNC(=O)[C@H](CCC(=O)O)NC(=O)CC(=O)NCCN1C(=O)c2ccc(C)cc2C1=O)[C@@H](C)O)[C@@H](C)O)C(=O)N[C@@H](Cc1ccc(O)cc1)C(=O)N[C@@H](CC(C)C)C(=O)N[C@@H](CC(=O)O)C(=O)N[C@@H](CCCCN)C(=O)N[C@@H](CCC(N)=O)C(=O)N[C@@H](C)C(=O)N[C@@H](C)C(=O)NC(C)(C)C(=O)N[C@@H](CCC(=O)O)C(=O)N[C@@H](Cc1ccccc1)C(=O)N[C@H](C(=O)N[C@@H](CC(N)=O)C(=O)N[C@@H](Cc1c[nH]c2ccccc12)C(=O)N[C@@H](CC(C)C)C(=O)N[C@@H](CC(C)C)C(=O)N[C@@H](C)C(=O)NCC(=O)NCC(=O)N1CCC[C@H]1C(=O)N[C@@H](CO)C(=O)N[C@@H](CO)C(=O)NCC(=O)N[C@@H](C)C(=O)N1CCC[C@H]1C(=O)N1CCC[C@H]1C(=O)N1CCC[C@H]1C(=O)N[C@@H](CO)C(=O)N[C@@H](CCCCN)C(N)=O)C(C)C` [Compound 126], the EC50 at GLP-1R (EC50 GLP-1R/nM, Table 3) is 10 to 100 nM; at GLP-1R (EC50 GLP-1R/nM, Table 3A), 10 to 100 nM; at GIP-R (EC50 GIP-R/nM, Table 3), 10 to 100 nM; at GIP-R (EC50 GIP-R/nM, Table 3A), 10 to 100 nM. For the same molecule, the maximal response (Emax) is 84% on GLP-1R (Table 3), 84% at GLP-1R (Table 3A), 42 to 51% on GIP-R (Table 3) and 42 to 51% on GIP-R (Table 3A).

For `CC[C@H](C)[C@H](NC(=O)[C@H](CO)NC(=O)[C@H](Cc1ccc(O)cc1)NC(=O)[C@H](CC(=O)O)NC(=O)[C@H](CO)NC(=O)[C@@H](NC(=O)[C@H](Cc1ccccc1)NC(=O)[C@@H](NC(=O)CNC(=O)[C@H](CCC(=O)O)NC(=O)C(C)(C)C(=O)NCCN1C(=O)c2ccc(C)cc2C1=O)[C@@H](C)O)[C@@H](C)O)C(=O)N[C@@H](Cc1ccc(O)cc1)C(=O)N[C@@H](CC(C)C)C(=O)N[C@@H](CC(=O)O)C(=O)N[C@@H](CCCCN)C(=O)N[C@@H](CCC(N)=O)C(=O)N[C@@H](C)C(=O)N[C@@H](C)C(=O)NC(C)(C)C(=O)N[C@@H](CCC(=O)O)C(=O)N[C@@H](Cc1ccccc1)C(=O)N[C@H](C(=O)N[C@@H](CC(N)=O)C(=O)N[C@@H](Cc1c[nH]c2ccccc12)C(=O)N[C@@H](CC(C)C)C(=O)N[C@@H](CC(C)C)C(=O)N[C@@H](C)C(=O)NCC(=O)NCC(=O)N1CCC[C@H]1C(=O)N[C@@H](CO)C(=O)N[C@@H](CO)C(=O)NCC(=O)N[C@@H](C)C(=O)N1CCC[C@H]1C(=O)N1CCC[C@H]1C(=O)N1CCC[C@H]1C(=O)N[C@@H](CO)C(=O)N[C@@H](CCCCN)C(N)=O)C(C)C` [Compound 127], the EC50 on GLP-1R (EC50 GLP-1R/nM, Table 3) is 1 to 10 nM; at GLP-1R (EC50 GLP-1R/nM, Table 3A), 1 to 10 nM; at GIP-R (EC50 GIP-R/nM, Table 3), 1 to 10 nM; on GIP-R (EC50 GIP-R/nM, Table 3A) it was 1 to 10 nM. For the same molecule, the Emax at GLP-1R (Table 3) fell in the range of 95 to 107%; at GLP-1R (Table 3A), 95 to 107%; on GIP-R (Table 3), 98 to 102%; on GIP-R (Table 3A), 98 to 102%.

Take `CC[C@H](C)[C@H](NC(=O)[C@H](CO)NC(=O)[C@H](Cc1ccc(O)cc1)NC(=O)[C@H](CC(=O)O)NC(=O)[C@H](CO)NC(=O)[C@@H](NC(=O)[C@H](Cc1ccccc1)NC(=O)[C@@H](NC(=O)CNC(=O)[C@H](CCC(=O)O)NC(=O)C(C)(C)C(=O)O)[C@@H](C)O)[C@@H](C)O)C(=O)N[C@@H](Cc1ccc(O)cc1)C(=O)N[C@@H](CC(C)C)C(=O)N[C@@H](CC(=O)O)C(=O)N[C@@H](CCCCN)C(=O)N[C@@H](CCC(N)=O)C(=O)N[C@@H](C)C(=O)N[C@@H](C)C(=O)NC(C)(C)C(=O)N[C@@H](CCC(=O)O)C(=O)N[C@@H](Cc1ccccc1)C(=O)N[C@H](C(=O)N[C@@H](CC(N)=O)C(=O)N[C@@H](Cc1c[nH]c2ccccc12)C(=O)N[C@@H](CC(C)C)C(=O)N[C@@H](CC(C)C)C(=O)N[C@@H](C)C(=O)NCC(=O)NCC(=O)N1CCC[C@H]1C(=O)N[C@@H](CO)C(=O)N[C@@H](CO)C(=O)NCC(=O)N[C@@H](C)C(=O)N1CCC[C@H]1C(=O)N1CCC[C@H]1C(=O)N1CCC[C@H]1C(=O)N[C@@H](CO)C(=O)N[C@@H](CCCCN)C(N)=O)C(C)C` [Compound 131]: the Emax on GLP-1R (Table 3) stood at 95%; on GLP-1R (Table 3A) it was 95%; on GIP-R (Table 3), 3.2%. Also, the EC50 on GLP-1R (setting [1]) is 1 to 10 nM; on GLP-1R (setting [2]), 1 to 10 nM; on GIP-R (setting [3]), > 1000 nM; at GIP-R (setting [4]), > 1000 nM.

Turning to `CC[C@H](C)[C@H](NC(=O)[C@H](CO)NC(=O)[C@H](Cc1ccc(O)cc1)NC(=O)[C@H](CC(=O)O)NC(=O)[C@H](CO)NC(=O)[C@@H](NC(=O)[C@H](Cc1ccccc1)NC(=O)[C@@H](NC(=O)CNC(=O)[C@H](CCC(=O)O)NC(=O)CSCC(=O)NCCN1C(=O)c2ccccc2C1=O)[C@@H](C)O)[C@@H](C)O)C(=O)N[C@@H](Cc1ccc(O)cc1)C(=O)N[C@@H](CC(C)C)C(=O)N[C@@H](CC(=O)O)C(=O)N[C@@H](CCCCN)C(=O)N[C@@H](CCC(N)=O)C(=O)N[C@@H](C)C(=O)N[C@@H](C)C(=O)NC(C)(C)C(=O)N[C@@H](CCC(=O)O)C(=O)N[C@@H](Cc1ccccc1)C(=O)N[C@H](C(=O)N[C@@H](CCC(=O)O)C(=O)N[C@@H](Cc1c[nH]c2ccccc12)C(=O)N[C@@H](CC(C)C)C(=O)N[C@@H](CC(C)C)C(=O)N[C@@H](C)C(=O)NCC(=O)NCC(=O)N1CCC[C@H]1C(=O)N[C@@H](CO)C(=O)N[C@@H](CO)C(=O)NCC(=O)N[C@@H](C)C(=O)N1CCC[C@H]1C(=O)N1CCC[C@H]1C(=O)N1CCC[C@H]1C(=O)N[C@@H](CO)C(=O)N[C@@H](CCCCN)C(N)=O)C(C)C` [Compound 149] (X1-EGTFTSDYSIYLDKQAA[Aib]EFVEWLLAGGPSSGAPPPSK-NH2), the EC50 at GLP-1R (EC50 GLP-1R/nM, Table 3) was 1 to 10 nM; at GLP-1R (EC50 GLP-1R/nM, Table 3A), 1 to 10 nM; on GIP-R (EC50 GIP-R/nM, Table 3), < 0.1 nM; at GIP-R (EC50 GIP-R/nM, Table 3A) it was < 0.1 nM. The Emax on GLP-1R (Table 3) is 86 to 92%; on GLP-1R (Table 3A), 86 to 92%; at GIP-R (Table 3), 113%; at GIP-R (Table 3A), 113%.

Regarding `CC[C@H](C)[C@H](NC(=O)[C@H](CO)NC(=O)[C@H](Cc1ccc(O)cc1)NC(=O)[C@H](CC(=O)O)NC(=O)[C@H](CO)NC(=O)[C@@H](NC(=O)[C@H](Cc1ccccc1)NC(=O)[C@@H](NC(=O)CNC(=O)[C@H](CCC(=O)O)NC(=O)CSCC(=O)NCCN1C(=O)c2ccccc2C1=O)[C@@H](C)O)[C@@H](C)O)C(=O)N[C@@H](Cc1ccc(O)cc1)C(=O)N[C@@H](CC(C)C)C(=O)N[C@@H](CC(=O)O)C(=O)N[C@@H](CCC(=O)O)C(=O)N[C@@H](CCC(N)=O)C(=O)N[C@@H](C)C(=O)N[C@@H](C)C(=O)NC(C)(C)C(=O)N[C@@H](CCC(=O)O)C(=O)N[C@@H](Cc1ccccc1)C(=O)N[C@H](C(=O)N[C@@H](CC(N)=O)C(=O)N[C@@H](Cc1c[nH]c2ccccc12)C(=O)N[C@@H](CC(C)C)C(=O)N[C@@H](CC(C)C)C(=O)N[C@@H](C)C(=O)NCC(=O)NCC(=O)N1CCC[C@H]1C(=O)N[C@@H](CO)C(=O)N[C@@H](CO)C(=O)NCC(=O)N[C@@H](C)C(=O)N1CCC[C@H]1C(=O)N1CCC[C@H]1C(=O)N1CCC[C@H]1C(=O)N[C@@H](CO)C(=O)N[C@@H](CCCCN)C(N)=O)C(C)C` [Compound 150] (X1-EGTFTSDYSIYLDEQAA[Aib]EFVNWLLAGGPSSGAPPPSK-NH2), the EC50 was 1 to 10 nM at GLP-1R (EC50 GLP-1R/nM, Table 3); 1 to 10 nM at GLP-1R (EC50 GLP-1R/nM, Table 3A); < 1 nM at GIP-R (read-out: EC50 GIP-R/nM, Table 3); < 1 nM on GIP-R (read-out: EC50 GIP-R/nM, Table 3A). For the same molecule, the Emax on GLP-1R (Table 3) was 95 to 113%; at GLP-1R (Table 3A), 95 to 113%; at GIP-R (Table 3A), 118 to 130%.

In the case of `CC[C@H](C)[C@H](NC(=O)[C@H](CO)NC(=O)[C@H](Cc1ccc(O)cc1)NC(=O)[C@H](CC(=O)O)NC(=O)[C@H](CO)NC(=O)[C@@H](NC(=O)[C@H](Cc1ccccc1)NC(=O)[C@@H](NC(=O)CNC(=O)[C@H](CCC(=O)O)NC(=O)CS(=O)(=O)CC(=O)NCCN1C(=O)CSC1=O)[C@@H](C)O)[C@@H](C)O)C(=O)N[C@@H](Cc1ccc(O)cc1)C(=O)N[C@@H](CC(C)C)C(=O)N[C@@H](CC(=O)O)C(=O)N[C@@H](CCCCN)C(=O)N[C@@H](CCC(N)=O)C(=O)N[C@@H](C)C(=O)N[C@@H](C)C(=O)NC(C)(C)C(=O)N[C@@H](CCC(=O)O)C(=O)N[C@@H](Cc1ccccc1)C(=O)N[C@H](C(=O)N[C@@H](CC(N)=O)C(=O)N[C@@H](Cc1c[nH]c2ccccc12)C(=O)N[C@@H](CC(C)C)C(=O)N[C@@H](CC(C)C)C(=O)N[C@@H](C)C(=O)NCC(=O)NCC(=O)N1CCC[C@H]1C(=O)N[C@@H](CO)C(=O)N[C@@H](CO)C(=O)NCC(=O)N[C@@H](C)C(=O)N1CCC[C@H]1C(=O)N1CCC[C@H]1C(=O)N1CCC[C@H]1C(=O)N[C@@H](CO)C(=O)N[C@@H](CCCCN)C(N)=O)C(C)C` [Compound 168], the Emax on GLP-1R (Table 3) and at GLP-1R (Table 3A) was 92% each time. For the same molecule, the EC50 at GLP-1R (setting [1]) was 1 to 10 nM; at GLP-1R (setting [2]) it was 1 to 10 nM; on GIP-R (setting [3]), > 1000 nM; at GIP-R (setting [4]), > 1000 nM. Moreover, at GIP-R (read-out: (Emax) GIP-R at 1 μM, Table 3, at 1 μM), the Emax at 1 µM lay within 6 to 14%.
